Test results: patent publication US20100197740A1, “Method of Screening Compounds Having Anti-Amyloid Properties” (LES LABORATOIRES SERVIER, priority 2006, published 2010)

What was measured:
[1] = test system: α7 nAChR and NMDAR; assay: Functional recovery: 45Ca2+ entry into frontal cortex synaptosomes via α7 and NMDA receptors; format: biochemical, human
Method: FIG. 5: Quantification of the entry of ^45Ca^2+ into human frontal cortex synaptosomes obtained post-mortem from Alzheimer's disease patients and from control subjects and treated with S 24795. The control brain slices are incubated in the presence of Aβ42 (1 μM)—or not—prior to the treatment with S 24795 (10 μM). Calcium entry is brought about either by α7 agonist (PNU282987) or by NMDA added to glycine.
The functional recovery experiments are carried out using brains according to I.2 obtained from patients according to I.1.
The functional recovery brought about by the treatment with S 24795 (10 μM) is evaluated with reference to the calcium influx via α7 and NMDA receptors. It was tested after 1 hour of treatment with S 24795 on control brains exposed to Aβ42 (30 minutes) and on brains of Alzheimer's disease patients. The treatments using Aβ42 (1 μM) and S 24795 (10 μM) are carried out on slices of cortex obtained from those brains. Synaptosomes are then prepared as described in I.4. In order to evaluate the Ca^2+ influxes via the α7 and NMDA receptors, the synaptosomes are incubated in the presence of ^45Ca^2+ (5 μM) for 5 minutes at 37° C. in Krebs-Ringer medium. The Ca^2+ fluxes are brought about for α7 selective α7nAChR receptor agonist, PNU282987 (0.1, 1 and 10 μM), and for the NMDAR receptors by the addition of NMDA (0.1, 1, 10 μM) and glycine (1 μM). The reaction is stopped by the addition of Krebs-Ringer (4° C.) containing EGTA but not containing calcium. After two washings, the synaptosomes are lysed by sonication in ethanol (95%) and the radioactivity is counted by liquid scintillation spectrometry. The specificity of the calcium influxes is checked by means of the addition of selective inhibitors of the α7 receptor (α-bungarotoxin) and of the NMDA receptor (AP-5).

[2] = molecular target: T1, Aβ42-α7 nAChR complexes (Homo sapiens, UniProt P36544); assay: Inhibition of formation of Aβ42-α7 nAChR complexes in post-mortem frontal cortex synaptosomes (immunoprecipitation, Western blot); format: binding; conditions: S 24795 30 μM added before Aβ peptides (Aβ42 100 nM); non-diseased control human cortex synaptosomes
T1 construct: dissociation of the complexes already present in the diseased human tissues; tissue Harvard Brain Tissue Resource Center and Analytical Biological Services; host or cells: post-mortem frontal cortex synaptosomes of Alzheimer's disease patients
T1 sequence (P36544 23-502, one chain of several): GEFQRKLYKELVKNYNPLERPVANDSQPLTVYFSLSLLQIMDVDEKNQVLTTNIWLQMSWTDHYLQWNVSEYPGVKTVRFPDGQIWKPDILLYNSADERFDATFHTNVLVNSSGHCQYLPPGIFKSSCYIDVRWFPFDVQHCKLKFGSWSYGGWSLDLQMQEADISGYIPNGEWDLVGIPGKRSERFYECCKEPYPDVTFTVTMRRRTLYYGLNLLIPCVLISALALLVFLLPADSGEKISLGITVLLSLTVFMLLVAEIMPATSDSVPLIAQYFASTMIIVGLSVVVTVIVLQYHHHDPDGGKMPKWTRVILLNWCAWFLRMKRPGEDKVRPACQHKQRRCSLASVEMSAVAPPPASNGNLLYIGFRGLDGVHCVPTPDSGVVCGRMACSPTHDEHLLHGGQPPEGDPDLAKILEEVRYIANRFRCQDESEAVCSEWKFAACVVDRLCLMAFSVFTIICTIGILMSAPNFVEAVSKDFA
Method: FIG. 1: Western blot illustrating the inhibition, by S 24795, of Aβ42-α7 nAChR complexes obtained post-mortem from frontal cortex synaptosomes of Alzheimer's disease patients or control subjects. The Aβ42-α7 nAChR complexes are incubated in the medium (Krebs-Ringer) on its own or in the presence of S 24795 (30 μM) for 10 minutes, followed by incubation in the presence of Aβ42 peptide for 30 minutes.
FIG. 2: Quantification of the inhibition of the formation of Aβ42-α7 nAChR complexes in human frontal cortex synaptosomes obtained post-mortem from Alzheimer's disease patients and control subjects and incubated with S 24795 (30 μM)—or not—and then with Aβ42 peptides (100 nM). *: p<0.01 for controls and Alzheimer's disease patients, Newman-Keuls test for multiple comparisons.
(§1) 100 mg of post-mortem frontal cortex ground on ice are homogenised in 10 volumes of 10 mM HEPES pH 7.4 maintained on ice and oxygenated in the presence of […] sucrose and 0.1 mM EDTA and then mixed in a Teflon/glass tissue grinder at 4° C. in a homogenisation solution containing 25 mM HEPES pH 7.5, 1 mM EDTA, 50 μg/ml of leupeptin, 10 μg/ml of aprotinin, 2 μg/ml of soy trypsin inhibitor, 0.04 mM PMSF, a mixture of phosphatase inhibitor proteins, and 0.2% […].
The homogenate is centrifuged, firstly, at 1000 g and 4° C. for 10 minutes. […]

[3] = molecular target: T1, Aβ42-α7 nAChR complexes; assay: Dissociation of Aβ42-α7 nAChR complexes already present in frontal cortex synaptosomes of Alzheimer's disease patients (immunoprecipitation, Western blot); format: binding
Method: FIG. 3: Western blot illustrating the dissociation, caused by S 24795, of Aβ42-α7 nAChR complexes obtained post-mortem from frontal cortex synaptosomes of Alzheimer's disease patients or control subjects. The Aβ42-α7 nAChR complexes are incubated in the medium (Krebs-Ringer) on its own or in the presence of S 24795 (1, 10, 30 or 100 μM) for 10 minutes and then in the presence or absence of Aβ42 (100 nM).
FIG. 4: Quantification of the dissociation of the interaction of α7 nAChR receptors associated with Aβ42 in human frontal cortex synaptosomes obtained post-mortem from Alzheimer's disease patients and control subjects and incubated with S 24795 (from 1 to 100 μM) and then in the presence or absence of Aβ42 (100 nM). *: p<0.01 for controls and Alzheimer's disease patients, Newman-Keuls test for multiple comparisons.
as §1
The homogenate is centrifuged, firstly, at 1000 g and 4° C. for 10 minutes. The supernatant obtained in that first centrifugation is centrifuged for a second time at 15000 g for 30 minutes to obtain a sediment of synaptosomes.
The sediment of synaptosomes is washed twice by suspension in 10 ml of Krebs-Ringer solution, maintained on ice, comprising 25 mM HEPES pH 7.4, 118 mM NaCl, 4.8 mM KCl, 25 mM NaHCO3, 1.3 mM CaCl2, 1.2 mM MgSO4, 1.2 mM KH2PO4, 10 mM glucose, 100 μM ascorbic acid, 50 μg/ml of leupeptin, 10 μg/ml of aprotinin, 2 μg/ml of soy trypsin inhibitor, 0.04 mM PMSF and a mixture of phosphatase inhibitor proteins, aerated for 10 minutes using 95% O2/5% CO2 and then centrifuged again at 15000 g for 10 minutes at 4° C. The washed synaptosomes are then suspended in 1 ml of oxygenated Krebs-Ringer solution and the protein concentration of said synaptosome suspension is determined by the Bradford method.
The human cortex synaptosomes are incubated in an oxygenated Krebs-Ringer solution in the presence of the compound S 24795 at 37° C. for 30 minutes in a total incubation volume of 500 μl. The compound S 24795 is present in the reaction mixture at a concentration of 1 μM, 10 μM, 30 μM or 100 μM. Depending on the experiments being carried out, the synaptosomes are also incubated in the presence of 100 nM Aβ42 or in the presence of the vehicle. […]

1-(4-bromophenyl)-2-(1-methyl-2-pyridiniumyl)-1-ethanone chloride or iodide [S 24795]
Ca2+ entry level as % of the control values without Aβ ([1]; after S 24795 10 μM, brains of Alzheimer's disease patients and of controls pretreated with Aβ (comparable levels)): about 65% | increase in Ca2+ entry compared to the brains of untreated Alzheimer's disease patients ([1]; brains of Alzheimer's disease patients, S 24795 10 μM for 1 hour): ~75% | re-establishment of Ca2+ entry ([1]; control brain slices exposed to Aβ42 (1 μM), then S 24795 10 μM for 1 hour): substantial re-establishment | reduction of the amount of Aβ42-α7 nAChR complexes formed [2]: 92% | reduction in the Aβ42-α7 nAChR complexes previously present in the diseased brain extracts ([3]; S 24795 1 μM, absence of exogenous Aβ peptides, Alzheimer's disease synaptosomes): about 22% | reduction in the Aβ42-α7 nAChR complexes previously present in the diseased brain extracts ([3]; S 24795 10, 30 and 100 μM, absence of exogenous Aβ peptides, dose-dependent): substantial | reduction of non-dissociated Aβ42-α7 nAChR complexes ([3]; S 24795 at the highest concentration (100 μM), absence of exogenous Aβ peptides, Alzheimer's disease synaptosomes, p<0.01): ~63% | reduction in the amount of Aβ42-α7 nAChR complexes present in the diseased brains ([3]; synaptosomes from cortices of Alzheimer's disease patients, S 24795 30 μM, Aβ peptides added (FIG. 1)): substantial reduction
